Reference: patent US20240382730A1, “FLEXIBLE MICRONEEDLE ARRAY PATCH FOR CHRONIC WOUND OXYGENATION AND BIOFILM ERADICATION” (Purdue Research Foundation, priority 2021, published 2024)

System: S. aureus mature biofilm
Assay: Colony biofilm model, mature biofilm
Type: cell-based, Staphylococcus aureus
Conditions: FIG. 9a; powder amount estimated equal to that in the CPO-loaded MN sample, 24 h
Description: Biofilm Antibacterial Studies. Antibiofilm activity of MNs loaded with CPO was evaluated by the colony biofilm model. Overnight cultures of S. aureus and P. aeruginosa were diluted to 2×10^5 CFU mL−1 with TSB. Next, 50 μL of the diluted bacterial suspension was inoculated onto sterile 10 mm nitrocellulose disks placed on the surface of tryptic soy agar (TSA) plates. To allow biofilm development on the nitrocellulose membrane, the plates were incubated at 37° C. for 72 h. The developed biofilm was then nourished by aseptically transferring to new TSA plates every day for 4 days.31,38 After maturation of the biofilms, 12 mm disks of MNs loaded with CPO and control samples including PET films, CPO powder, and 12 mm disks of MNs without CPO were placed onto the biofilm using sterile forceps. The quantity of CPO powder in the control was estimated to be the amount of CPO powder present in the sample of MNs loaded with CPO. For all experiments, biofilms without any treatments were used as the negative control. The plates were further incubated at 37° C. for 24 h immediately after each treatment. […] The plates were further incubated at 37° C. for 24 h and viable CFU mL−1 were calculated.

[Ca+2].[O-][O-] [CPO, calcium peroxide]
effect on number of colonies in biofilm: did not affect the number of colonies
